In US10227369B2, “Short-chain fatty acid hexosamine analogs and their use in tissue engineering applications” (THE JOHNS HOPKINS UNIVERSITY, priority 2013, dated 2019):
Entries after “also recorded” stand apart in the source; their conditions may differ.

Key:
Format in all cases: cell-based, bovine
[1] = tested on: IL-1β-stimulated chondrocytes; assay: IL-1β-stimulated chondrocytes in 3D PEGDA hydrogels: biochemical analysis (DNA, sGAG, collagen), histology, immunohistochemistry; conditions: 10 ng/ml IL-1β; for DNA content of cell-laden hydrogels (cell viability): 21 days exposure, up to 150 μM
Protocol: (§1) Cell Isolation and Culturing. Bovine chondrocytes were isolated from 4- to 8-week-old calves (Research 87, Inc., Boylston, Mass.), as previously described. Briefly, cartilage was dissected from the femoral patellar groove and condyles and minced into approximately 1 mm^2 pieces. Cells were isolated from the tissue by digesting overnight at 37° C. with 2 mg/ml type II collagenase (Worthington Biochemical Corp., Lakewood, N.J.), 5% fetal bovine serum (FBS), 100 U/ml penicillin and 100 μg/ml streptomycin on an orbital shaker. The cell suspension was passed through a 70 μm cell strainer, followed by centrifugation. Cells were washed 3 times using sterile phosphate buffered saline (PBS). Chondrocyte medium was composed of high glucose Dulbecco's Modified Eagle's Medium (DMEM) supplemented with 10 mM HEPES, 0.4 mM L-proline, 50 μg/ml ascorbic acid, 10% (v/v) fetal bovine serum (FBS; Hyclone Laboratories, Inc., Logan, Utah), 0.1 mM non-essential amino acids, 100 U/ml penicillin and 100 μg/ml streptomycin.
(§2) Photoencapsulation in Poly(Ethylene Glycol)-Diacrylate (PEGDA) Hydrogels and Construct Culturing. For all 3D culture experiments, cells were photoencapsulated in PEGDA hydrogels, as previously described. Briefly, 100 mg PEGDA (3.4 kDa, SunBio, Anyang City, South Korea) was dissolved in 1 ml sterile PBS. A photoinitiator solution of Irgacure® 2959 (CIBA Specialty Chemicals) was prepared by dissolving 100 mg of Irgacure® 2959 in 1 ml 70% ethanol. Five microliters of the Irgacure® 2959 solution was added to 1 ml of PEGDA solution. Cells were suspended in the hydrogel precursor solution at a density of 20 million cells/ml and polymerized in sterile molds. A high cell density was chosen as it has been shown. Based on our previous studies a high cell density was chosen to best to support a cell phenotype and differentiation and cell phenotype. Polymerization was carried out using UV light (365 nm, 3.2 mW/cm^2) exposure for 5 minutes.
(§3) For chondrocyte experiments, the cell-laden hydrogels were cultured in chondrocyte medium supplemented with 10 ng/ml IL-1β for 3 days. Following the initial 3 days, constructs were cultured with medium containing specific concentrations of hexosamine analog with 10 ng/ml IL-1β for an additional 21 days. The medium was changed 3 times per week.
(§4) Biochemical Analysis. The constructs (n=3 for chondrocyte experiments and n=4 for chondrogenic experiments) were lyophilized for 48 hours and the dry weights measured. Constructs were then homogenized in 125 μg/ml papainase (Worthington Biochemical Corp., Lakewood, N.J.) and digested for 16 hours at 60° C. Quantification of DNA content was carried out using a Hoescht Dye 33342 DNA assay. Calf thymus DNA was used to generate standard curves. Quantification of sulfated glycosaminoglycans (sGAG), a molecule found in cartilage ECM, was carried out using a 1,9-dimethylmethylene blue (DMMB) dye assay; chondroitin sulfate was used to generate standard curves. Quantification of collagen was carried out via measuring hydroxyproline content after hydrolyzing in 6 N HCl overnight at 120° C. The reaction of hydroxyproline with chloramine-T and p-dimethylaminobenzaldehyde was performed as a measure of total collagen content; hydroxyproline was used to generate standard curves.
Histology and Immunohistochemistry. Constructs were fixed in 10% formalin or 4% paraformaldehyde followed by dehydration in increasing concentrations of ethanol, embedded in paraffin and sliced into 5 μm sections. After paraffin removal and subsequent rehydration, sections were stained for proteoglycans using Safranin-O and fast green or prepared for immunohistochemistry. For immunohistochemical staining of type II collagen, endogenous peroxidase was quenched using 3% (v/v) hydrogen peroxide in methanol. Sections were then incubated at 37° C. with 2.5% (w/v) hyaluronidase and stained using a Histostain-SP Kit (AEC, Broad Spectrum) (Life Technologies, Grand Island, N.Y.) following the manufacturer's instructions. […]

[2] = tested on: IL-1β-stimulated chondrocytes; assay: IL-1β-stimulated chondrocytes in 3D PEGDA hydrogels: real-time PCR gene expression; conditions: 10 ng/ml IL-1β, 21 days
Protocol: as §1, §2, §3
(§5) RNA Isolation and Real-Time PCR. Total RNA was extracted using TRIzol® reagent (Life Technologies, Grand Island, N.Y.) following the manufacturer's protocol. cDNA was synthesized using Superscript® II reverse transcriptase (Life Technologies, Grand Island, N.Y.) following the manufacturer's protocol. Real-time PCR was carried out using a StepOnePlus™ Real-Time PCR System (Life Technologies, Grand Island, N.Y.). mRNA amounts for bovine primers were calculated using the ΔΔCt method. Relative mRNA quantities for goat primers were calculated using the Pfaffl method.

[3] = tested on: IL-1β stimulated chondrocytes; assay: Monolayer chondrocytes with IL-1β: real-time PCR of NFκB target genes; conditions: 50 μM, 10 ng/ml IL-1β
Protocol: as §1
Monolayer cell culture. […]
RNA Isolation and Real-Time PCR. […] Real-time PCR was carried out using a StepOnePlus™ Real-Time PCR System (Life Technologies, Grand Island, N.Y.). mRNA amounts for bovine primers were calculated using the ΔΔCt method. Relative mRNA quantities for goat primers were calculated using the Pfaffl method.

[4] = tested on: unstimulated chondrocytes; assay: Unstimulated (no IL-1β) chondrocytes in 3D PEGDA hydrogels: biochemical analysis and histology; conditions: for DNA content of cell-laden hydrogels (cell viability): 21 days exposure; for sGAG deposition / total collagen accumulation / type II collagen immunostaining: 21 days
Protocol: as §1, §2, §4
Histology and Immunohistochemistry. Constructs were fixed in 10% formalin or 4% paraformaldehyde followed by dehydration in increasing concentrations of ethanol, embedded in paraffin and sliced into 5 μm sections. After paraffin removal and subsequent rehydration, sections were stained for proteoglycans using Safranin-O and fast green or prepared for immunohistochemistry. For immunohistochemical staining of type II collagen, endogenous peroxidase was quenched using 3% (v/v) hydrogen peroxide in methanol. Sections were then incubated at 37° C. with 2.5% (w/v) hyaluronidase and stained using a Histostain-SP Kit (AEC, Broad Spectrum) (Life Technologies, Grand Island, N.Y.) following the manufacturer's instructions. Primary antibody for type II collagen (Fitzgerald Industries International, Acton, Mass.) was used at a dilution of 1:100 in 1% (w/v) BSA dissolved in PBS.

[5] = tested on: unstimulated chondrocytes; assay: Unstimulated (no IL-1β) chondrocytes in 3D PEGDA hydrogels: real-time PCR gene expression; conditions: 21 days
Protocol: as §1, §2, §5

[6] = concentrations similar to increased ECM accumulation
[7] = across the concentrations evaluated

CCCC(=O)OC[C@H]1OC(O)[C@@H](NC(C)=O)[C@@H](OC(=O)CCC)[C@@H]1OC(=O)CCC (some centres unmarked) [ManNAc-a, 3,4,6-O-Bu3ManNAc]
proteoglycan deposition (Safranin-O staining) ([1]; 21 days, at 150 μM): further increase
sGAG accumulation normalized to DNA ([1]; 21 days, at 150 μM): further increase

CCCC(=O)OC[C@H]1OC(O)[C@H](NC(C)=O)[C@@H](OC(=O)CCC)[C@@H]1OC(=O)CCC (some centres unmarked) [GlcNAc-a, 3,4,6-O-Bu3GlcNAc]
lowest concentration at which an increase in Safranin-O and type II collagen stains is observed ([1]; 21 days): 25 µM
DNA content of cell-laden hydrogels (cell viability) [1]: did not elicit a statistically significant difference
type II collagen immunostaining, stain intensity versus no analog ([1]; 21 days, 25 μM and 150 μM): slight increase in stain intensity
change in sGAG deposition compared to no exposure ([1]; 21 days, 50 μM): almost doubling
increase in collagen accumulation compared to no exposure ([1]; 21 days, 50 μM and 100 μM): almost doubling
total collagen accumulation normalized to DNA ([1]; 21 days, 50 μM and 100 μM): significant increase
type II collagen immunostaining ([1]; 21 days, 50 μM and 100 μM): increase in type II collagen immunostaining
sGAG accumulation normalized to DNA ([1]; 21 days, at 150 μM): decreased
sGAG accumulation normalized to DNA ([1]; 21 days, concentrations up to 100 μM, versus no analog): increase in sGAG accumulation
IκBα gene expression [2]: decreased
MMP13, NFκB1 and IκBα expression levels relative to unstimulated chondrocytes [2]: near to that of unstimulated
NFKB1 gene expression [2]: decreased
aggrecan, type II collagen and type I collagen expression relative to unstimulated chondrocytes [2]: approached expression levels found in unstimulated chondrocytes
MMP13 gene expression ([2]; 150 μM): further decrease
aggrecan gene expression [2, 6]: increased
type II collagen gene expression [2, 6]: increased
MMP13 gene expression ([2]; higher concentrations (through 100 μM)): decrease
type I collagen gene expression ([2]; intermediate concentrations): increased
MMP13 gene expression ([2]; low concentrations / lowest dose): initial increase
expression levels of IL-1β, IκBα and iNOS ([3]; 4 hours exposure): able to alter expression levels of some of the genes
expression levels of NFκB target genes (IL-1β, MMP13, ADAMTS4, ADAMTS5, iNOS, PGES, NFκB1, IκBα) ([3]; 24 hours exposure, MMP9 is the exception): decreased the expression levels of all genes evaluated
DNA content of cell-laden hydrogels (cell viability) [4]: did not elicit a statistically significant difference
sGAG deposition ([4]; 150 μM): a decrease was observed
total collagen accumulation ([4]; above 50 μM): concentration dependent decrease
type II collagen immunostaining ([4]; above 50 μM): dose-dependent decrease
sGAG deposition ([4]; below 150 μM): did not have an effect
total collagen accumulation ([4]; through 50 μM): maintained collagen accumulation
type II collagen immunostaining ([4]; through 50 μM): no differences
type I collagen gene expression [5]: concentration-dependent decrease
MMP13 gene expression ([5]; after lowest dose through 100 μM): decrease
IκBα and NFκB1 gene expression ([5]; except the highest concentrations): Neither of these genes changed
IκBα and NFκB1 gene expression ([5]; highest concentrations studied): an increase was observed
MMP13 gene expression ([5]; lowest dose): initial increase

CCCC(=O)OC1OC(CO)[C@@H](OC(=O)CCC)[C@H](OC(=O)CCC)C1NC(C)=O (some centres unmarked) [1,3,4-O-Bu3GlcNAc, reference compound]
DNA content of cell-laden hydrogels (cell viability) [1]: no statistical differences
sGAG accumulation normalized to DNA ([1]; 21 days, across the concentrations evaluated): did not alter; also recorded: no statistical differences
total collagen deposition normalized to DNA [1, 7]: did not alter; also recorded: no statistical differences
DNA content of cell-laden hydrogels (cell viability) [4]: no statistical differences
sGAG deposition normalized to DNA [4, 7]: did not alter; also recorded: no statistical differences
total collagen deposition normalized to DNA [4, 7]: did not alter; also recorded: no statistical differences
